`*C(=O)Nc1c(C)cc(Cc2cc(C)c(NC(=O)c3ccc4c(c3)C(=O)N(c3ccc(/N=N/c5ccc(F)cc5)c(N5C(=O)c6ccc(*)cc6C5=O)c3)C4=O)c(C)c2)cc1C` (repeat unit) displayed a glass transition temperature of 279.00 °C.
In the case of `*C(=O)Nc1c(CC)cc(Cc2cc(CC)c(NC(=O)c3ccc4c(c3)C(=O)N(c3ccc(/N=N/c5ccc(C)cc5)c(N5C(=O)c6ccc(*)cc6C5=O)c3)C4=O)c(CC)c2)cc1CC` (repeat unit), the glass transition temperature turned out to be 269.00 °C.
In turn, `*C(=O)c1ccc2c(c1)C(=O)N(c1ccc(Cc3ccc(N4C(=O)c5ccc(*)cc5C4=O)c(C(C)(C)C)c3)cc1C(C)(C)C)C2=O` (repeat unit) returned a glass transition temperature of 213.00 °C.
`*C(=O)c1ccc2c(c1)C(=O)N(c1ccc(Oc3c(C)cc(Cc4cc(C)c(Oc5ccc(N6C(=O)c7ccc(*)cc7C6=O)cc5)c(C)c4)cc3C)cc1)C2=O` (repeat unit) came in with a glass transition temperature of 303.00 °C.
On to `*CCCCCCCCCCCCCCCCCCNC(=O)Cc1ccc(CC(=O)N*)cc1` (repeat unit), for which the glass transition temperature worked out at 78.00 °C.
To `*CCCCCCCCCCCOC(=O)c1cc(OCCCCCCCCCCOc2ccc(/N=N/c3ccc(OC)cc3)cc2)cc(C(=O)OCCCCCCCCCCCOc2ccc(-c3ccc(O*)cc3)cc2)c1` (repeat unit) belongs 53.00 °C; to `*CCCCCCOC(=O)C(CCCCCCCCCCP(=O)(OCC)OCC)C(=O)OCCCCCCOc1ccc(-n2on2-c2ccc(O*)cc2)cc1` (repeat unit), 9.00 °C.
Next, `*CCCCCCOC(=O)C(CCCCCCP(=O)(OCC)OCC)C(=O)OCCCCCCOc1ccc(-n2on2-c2ccc(O*)cc2)cc1` (repeat unit): 9.00 °C.
Next, `*CCCCCCOC(=O)C(CCCCCP(=O)(OCC)OCC)C(=O)OCCCCCCOc1ccc(-n2on2-c2ccc(O*)cc2)cc1` (repeat unit): 7.00 °C.
`*Cc1cc2cc(C(=O)Nc3ccc(S(=O)(=O)c4ccc(NC(=O)c5cc6cc(*)c(OC(=O)COc7ccc8ccc(=O)oc8c7)cc6oc5=O)cc4)cc3)c(=O)oc2cc1OC(=O)COc1ccc2ccc(=O)oc2c1` (repeat unit) gave a glass transition temperature of 233.00 °C.
Next, `*Nc1ccc(CC(C)(C)NC(=O)CCC(*)=O)cc1` (repeat unit): 158.00 °C; `*Nc1ccc(CC(C)(C)NC(=O)CCCCCCCCC(*)=O)cc1` (repeat unit): 92.00 °C; `*Oc1ccc(CC(NC(=O)CCc2ccc(OC(=O)CCC(*)=O)cc2)C(=O)OCC)cc1` (repeat unit): 78.00 °C.
For the compound `*Oc1ccc(CC(NC(=O)CCc2ccc(OC(=O)CCC(*)=O)cc2)C(=O)OCCCCCCCC)cc1` (repeat unit), the glass transition temperature turned out to be 48.00 °C.
As to `*Oc1ccc(CC(NC(=O)CCc2ccc(OC(=O)CCC(*)=O)cc2)C(=O)OCCCCCCCCCCCC)cc1` (repeat unit), the glass transition temperature turned out to be 40.00 °C.
In the case of `*Oc1ccc(CC(NC(=O)CCc2ccc(OC(=O)CCCC(*)=O)cc2)C(=O)OCCCC)cc1` (repeat unit), the glass transition temperature amounted to 56.00 °C.
To `*Oc1ccc(CC(NC(=O)CCc2ccc(OC(=O)CCCC(*)=O)cc2)C(=O)OCCCCCCCCCCCC)cc1` (repeat unit) belongs 27.50 °C; to `*Oc1ccc(CC(NC(=O)CCc2ccc(OC(=O)CCCCC(*)=O)cc2)C(=O)OC(C)C)cc1` (repeat unit), 56.50 °C.
Next, `*Oc1ccc(CC(NC(=O)CCc2ccc(OC(=O)CCCCC(*)=O)cc2)C(=O)OCCCC)cc1` (repeat unit): 46.00 °C; `*Oc1ccc(CC(NC(=O)CCc2ccc(OC(=O)CCCCC(*)=O)cc2)C(=O)OCCCCCC)cc1` (repeat unit): 37.73 °C; `*Oc1ccc(CC(NC(=O)CCc2ccc(OC(=O)CCCCC(*)=O)cc2)C(=O)OCCCCCCCC)cc1` (repeat unit): 28.00 °C.
In turn, `*Oc1ccc(CC(NC(=O)CCc2ccc(OC(=O)CCCCC(*)=O)cc2)C(=O)OCCCCCCCCCCCC)cc1` (repeat unit) had a glass transition temperature of 22.00 °C.
`*Oc1ccc(CC(NC(=O)Cc2ccc(OC(=O)CC(C)CCC(*)=O)cc2)C(=O)OCCCCCC)cc1` (repeat unit) showed a glass transition temperature of 38.00 °C.
Turning to `*Oc1ccc(CC(NC(=O)Cc2ccc(OC(=O)CCC(*)=O)cc2)C(=O)OCCCCCC)cc1` (repeat unit), the glass transition temperature was found to be 59.00 °C.
The compound `*Oc1ccc(CC(NC(=O)Cc2ccc(OC(=O)CCCC(*)=O)cc2)C(=O)OCCCCCC)cc1` (repeat unit) showed a glass transition temperature of 42.00 °C.
On to `*Oc1ccc(CC(NC(=O)Cc2ccc(OC(=O)CCCCC(*)=O)cc2)C(=O)OCC)cc1` (repeat unit), for which the glass transition temperature was determined as 63.00 °C.
Consider `*c1c(C)cc(-c2cc(C)c(N3C(=O)c4ccc(Oc5c(C)cc(Cc6cc(C)c(Oc7ccc8c(c7)C(=O)N(*)C8=O)c(C)c6)cc5C)cc4C3=O)c(C)c2)cc1C` (repeat unit), for which the glass transition temperature came out at 420.00 °C.
Next, `*c1c(C)cc(C)c(N2C(=O)c3cccc(Oc4c(C)cc(Cc5cc(C)c(Oc6cccc7c6C(=O)N(*)C7=O)c(C)c5)cc4C)c3C2=O)c1C` (repeat unit): 287.00 °C; `*c1c(C)cc(Cc2cc(C)c(N3C(=O)c4ccc(Oc5cc6ccccc6cc5Oc5ccc6c(c5)C(=O)N(*)C6=O)cc4C3=O)c(C)c2)cc1C` (repeat unit): 265.00 °C.
`*c1c(C)cc(Cc2cc(C)c(N3C(=O)c4ccc(Oc5cccc6c(Oc7ccc8c(c7)C(=O)N(*)C8=O)cccc56)cc4C3=O)c(C)c2)cc1C` (repeat unit) gave a glass transition temperature of 281.00 °C.
To `*c1ccc(CC(=O)Nc2ccc(-c3ccc(NC(=O)Cc4ccc(-c5sc(*)c(-c6ccccc6)c5-c5ccccc5)cc4)cc3)cc2)cc1` (repeat unit) belongs 272.00 °C.
The compound `*c1ccc(CC(=O)Nc2ccc(NC(=O)Cc3ccc(-c4sc(*)c(-c5ccccc5)c4-c4ccccc4)cc3)cc2)cc1` (repeat unit) showed a glass transition temperature of 251.00 °C.
In turn, `*c1ccc(CC(=O)Nc2ccc(S(=O)(=O)c3ccc(NC(=O)Cc4ccc(-c5sc(*)c(-c6ccccc6)c5-c5ccccc5)cc4)cc3)cc2)cc1` (repeat unit) had a glass transition temperature of 252.00 °C.
Next, `*c1ccc(Cc2ccc(N3C(=O)c4ccc(Oc5ccc(Oc6ccc7c(c6)C(=O)N(*)C7=O)cc5)cc4C3=O)c(OC)c2)cc1OC` (repeat unit): 269.00 °C.
In turn, `*c1ccc(Cc2ccc(N3C(=O)c4ccc(Oc5ccc6c(c5)C(=O)N(*)C6=O)cc4C3=O)c(C(C)(C)C)c2)cc1C(C)(C)C` (repeat unit) showed a glass transition temperature of 216.00 °C.
Next, `*c1ccc(Oc2c(C)cc(Cc3cc(C)c(Oc4ccc(-n5c(=O)c6cc7c(=O)n(*)c(=O)c7cc6c5=O)cc4)c(C)c3)cc2C)cc1` (repeat unit): 299.50 °C; `*c1ccc(Oc2ccc(N3C(=O)c4cccc(Oc5c(C)cc(Cc6cc(C)c(Oc7cccc8c7C(=O)N(*)C8=O)c(C)c6)cc5C)c4C3=O)cc2)cc1` (repeat unit): 270.00 °C; `*c1ccc2c(c1)C(=O)N(c1c(CC)cc(Cc3cc(CC)c(N4C(=O)c5ccc(C(*)(C(F)(F)F)C(F)(F)F)cc5C4=O)c(CC)c3)cc1CC)C2=O` (repeat unit): 266.00 °C.

Values taken from the PolyMetriX glass transition set.
